{
  "source": "patent US9957214B2",
  "about": "“Multifunctional radical quenchers” (ARIZONA BOARD OF REGENTS ON BEHALF OF ARIZONA STATE …, priority 2012, dated 2018)",
  "experiment": "Lipid peroxidation induced by AAPH peroxyl radicals in phospholipid liposomes (C11-BODIPY581/591 fluorescence)",
  "settings": "10 mM AAPH, phosphate buffer, 40° C.; compared with tocopherol",
  "description": "FIG. 4. Effect of nitrogen-containing 3-alkyl-1,4-benzoquinone derivatives on lipid peroxidation induced by peroxyl radicals generated from thermal decomposition of AAPH in phospholipid liposomes in phosphate buffer at 40° C. […] Relative fluorescence units are normalized to 100% intensity.\nSeveral methods for assaying lipid peroxidation in vitro have been developed (Kuypers et al. (1987) Biochim Biophys Acta. 25, 266-274; Pap et al. (1999) FEBS Lett. 453, 278-282; Drummen et al. (2002) Free RadicBiol Med. 33, 473-490). Almost all of these methods are based on inhibition of free radical-induced oxidation reactions. A widely used fluorescence assay for lipid peroxidation uses lipid soluble cis-parinaric acid as a probe. cis-parinaric acid loses its fluorescence (λexc/em: 320/432 nm) upon interaction with peroxyl radicals and retains its fluorescence in the presence of radical quenchers. cis-parinaric acid is, however, air sensitive, photolabile and absorbs light in the UV region of the spectrum (at ˜320 nm). […] C11-BODIPY^581/591 (Molecular Probes, Eugene, Oreg., USA) stock solution concentrations were determined by measuring the absorption of C11-BODIPY^581/591 at 582 nm using a molar extinction coefficient of 140,000 mol^−1 cm^−1 (R. P. Haugland, (1999) Handbook of Fluorescent Probes and Research Chemicals, Molecular Probes, Inc., Eugene, Oreg.). […]",
  "data": [
    {"compound": "CCCCCCCCCCCCCC1=C(OC)C(=O)C=C(NCCCC(=O)OCCCCCC)C1=O", "note": "[Compound 18, Hexyl 4-(4-methoxy-3,6-dioxo-5-tridecylcyclohexa-1,4-dienylamino)butanoate]", "values": [
      {"measurement": "Protection against lipid peroxidation in liposomes (in words)", "value": "significant protection against lipid peroxidation"}
    ]}
  ]
}
